Measurements taken from a melting point compilation (Tetko et al.; mined from patent text by program, amines drawn as free bases though some values may be those of a salt).

Row | SMILES | melting point
1 | C=CC(C)(C)C(O)C(Oc1ccc(Cl)cc1)n1ccnc1 (configuration not stated) | 88 to 90 °C
2 | Cc1ccc(C(=O)NCc2ccc3c(c2)C(=O)N(C2CCC(=O)NC2=O)C3=O)cc1 (configuration not stated) | 194 to 196 °C
3 | NC(=O)OCCN1Cc2ccccc2CCO1 | 110 to 111 °C
4 | CC1=C(n2ccccc2=O)c2cc([N+](=O)[O-])ccc2OC1(C)C | 200 °C
5 | CC(C)(C)N(NC(=O)c1ccccc1)C(=S)c1ccccc1 | 169 to 171 °C
6 | CC(=O)OC1CSC(Oc2ccc(-c3cccnc3)nc2)C(OC(C)=O)C1OC(C)=O (configuration not stated) | 196 °C
7 | COC(=O)CCCC(=O)c1ccc(OC)c(I)n1 | 111 °C
8 | O=C1Nc2ccc(Br)cc2C1c1ncnc2c1cnn2C1CCCC1 (configuration not stated) | 287 to 290 °C
9 | Cc1noc(NS(=O)(=O)c2ccc(-c3cc4ccccc4s3)s2)c1Br | 164 °C
10 | CC(C)(C)OC(=O)NCCSc1cccc2nccn12 | 105 to 107 °C
11 | NC(=O)c1ccc(OC(F)(F)F)c(Cl)c1 | 98 °C
12 | N#CNc1cc(Cl)ccc1N1CCOCC1 | 305 to 308 °C
13 | O=C(COc1ccc(NC(=O)OCCO)cc1)OCCOC(=O)COc1ccc(NC(=O)OCCO)cc1 | 158 to 161 °C
14 | OCc1c(Cl)ccc2nnsc12 | 138 to 140 °C
15 | C1=C(/C=C/c2ccsc2)CCN(Cc2nc3ccccc3[nH]2)C1 | 216 to 218 °C
16 | CSc1ncc(C2=NCC(C)(C)O2)cc1Cl | 113 to 115 °C
17 | CN(C)c1nc(N)nc2nc[nH]c12 | 254 to 256 °C
18 | Clc1ccc(Nc2ccnc(-c3cccc(Cl)n3)n2)cc1 | 174 to 176 °C
19 | Cc1ncc(C#N)c(Nc2ccc3[nH]ccc3c2C)c1-c1cc2cc(CN3CCN(C)CC3)ccc2o1 | 218 to 220 °C
20 | CS(=O)(=O)c1ccc(-n2cnc(Cl)c2-c2ccc(OC(F)(F)F)cc2)cc1 | 136 to 138 °C
21 | COC(=O)CC(c1ccc(OC)cc1)N1C(=O)c2ccccc2C1=O (configuration not stated) | 65 to 66 °C
22 | O=C(CCl)NCCOCCO | 130 to 132 °C
23 | CCCCC(C(=O)N[C@H]1CN2CCC1CC2)c1ccccc1 (some centres not stated) | 136 °C
24 | O=C(c1ccccc1)c1c[nH]c2ccc(OCc3ccc4ccccc4n3)cc12 | 214 to 216 °C
25 | CC(=O)N1CCc2ccc(S(=O)(=O)C(F)(F)F)cc2C1 | 199 to 200 °C
26 | CCOc1cc(C(O)C(C)C)cc2c1OC(C)(C)C2 (configuration not stated) | 100 to 101 °C

Row | SMILES | melting point
27 | O=C1NC(=O)C(Cc2ccc(OCc3nc4ncccc4[nH]3)cc2)S1 (configuration not stated) | 247 to 248 °C
28 | CN(C)c1nc2cc(NC(=O)c3c(C(=O)N4CCOCC4)cnn3C)ccn2n1 | 196 to 198 °C
29 | Cc1ccc(C23CCC(O)(CC2)CC3)cc1 | 144 °C
30 | COc1ccc(C2CCCCC2)cc1-c1csc(NC(=O)N2CCN(C3CCN(S(=O)(=O)C4CC4)CC3)CC2)n1 | 138 °C
31 | CNC(=O)Nc1ccc(O)c(Cl)c1 | 188 to 189 °C
32 | Cn1ccc(-n2ccnc2S)n1 | 126 to 128 °C
33 | CCCCc1c(CO)nc2ccccc2c1OCc1ccc(-c2ccccc2C(=O)O)cc1 | 174 °C
34 | N#Cc1ccc2c(c1)NC(=O)C2c1ncnc2c1cnn2C1CCCCC1 (configuration not stated) | > 300 °C
35 | Cc1nc(-n2cccc(C(F)(F)F)c2=O)sc1C(=O)NCc1ccccc1 | 203 to 204 °C
36 | O=C(Nc1ccc2cc(CN3CCCC3)cnc2c1)c1ccc(-c2ccc(Cl)cc2)cc1F | 177 °C
37 | CC(C)c1cc(Cl)cc(C(C)C)c1NC(=O)NS(=O)(=O)c1cccc(C(C)(C)O)c1 | 160 to 162 °C
38 | CCOC(=O)c1c(CCl)nc2cc(OC)c(OC)cc2c1-c1ccc(Cl)cc1 | 153 to 154 °C
39 | COC(=O)c1cc2c(N3CCN(CCC(C(=O)N4CCCCCC4)c4ccccc4)CC3)cccc2[nH]1 (configuration not stated) | 152 to 168 °C
40 | COCc1nc(N)nc(N)c1-c1cc(Cl)cc(Cl)c1 | 228 to 230 °C
41 | CS(=O)(=O)c1ccc(C2=C(c3ccc(F)cc3)CCC2)cc1 | 138 to 139 °C
42 | CCN1CCc2ccc(Nc3ncc(Cl)c(N[C@@H]4CCCC[C@H]4NC(=O)C(F)(F)F)n3)cc2CC1 | 165 °C
43 | Cc1nc2ccccc2n1CCOCCCl | 96 to 98 °C
44 | C(=C(c1ccccc1)c1ccccc1)c1ccc2c(c1)Sc1cc(C=C(c3ccccc3)c3ccccc3)ccc1N2c1ccccc1 | 232 to 237 °C
45 | COc1ccc2[nH]cc(CC(=O)N3C[C@@H]4[C@H](C3)[C@@](O)(c3ccccc3OC)[C@H](O)CC4(c3ccccc3)c3ccccc3)c2c1 (racemic) | 204 to 206 °C
46 | CCOC(=O)c1ccc2occ(-c3ccc(SC)cc3)c2n1 | 88 to 89 °C
47 | Cc1ccc2c(=O)n3ccsc3nc2c1 | 174 to 178 °C
48 | CC1(C)Oc2ccc(C#N)cc2C(Oc2ccc(O)nn2)C1(C)O (configuration not stated) | 131 to 134 °C
49 | CCCCCN1C(=O)C(O)(c2ccc3c(c2)OCO3)c2cccnc21 (configuration not stated) | 104 to 105 °C
50 | CCOc1ccc2c(c1)C(=O)N(CCCCBr)S2(=O)=O | 105 to 108 °C
51 | COc1ccc(-n2nc(CO)cc2-c2ccc(Cl)cc2)cc1 | 95 to 97 °C
52 | Cn1cc(C(=O)O)c(=O)c2cc3cc(F)c(N4CCNC(c5cccc(F)c5)C4)cc3nc21 (racemic) | 254 °C
